Source: US20170369492A1 (Takeda Pharmaceutical Company Limited, priority 2014, published 2017)
pEC50: −log10 of the molar value.

What follows are compounds tested against T1, human GPR43 (Homo sapiens, UniProt O15552) (assay: Ca-Flux Functional Assay: Determination of Agonist/Positive Allosteric Modulator (PAM) Activity). Details: CHO-K1 Gα16 cells stably expressing human GPR43; compound added in the presence of EC20 sodium acetate; intracellular Ca2+ by FLIPR; agonist/PAM activity not distinguished.
T1 construct: expressed in transfected cells
T1 sequence (O15552 1-330): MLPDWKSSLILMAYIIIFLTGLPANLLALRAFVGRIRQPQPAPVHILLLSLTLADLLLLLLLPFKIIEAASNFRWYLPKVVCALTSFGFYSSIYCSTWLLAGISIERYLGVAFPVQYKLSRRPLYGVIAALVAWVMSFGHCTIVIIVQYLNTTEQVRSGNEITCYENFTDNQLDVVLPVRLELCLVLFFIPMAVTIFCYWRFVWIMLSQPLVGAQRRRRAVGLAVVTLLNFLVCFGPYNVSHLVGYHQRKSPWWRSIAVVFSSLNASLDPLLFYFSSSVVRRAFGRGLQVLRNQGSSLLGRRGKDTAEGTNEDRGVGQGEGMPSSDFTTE
Format: cell-based
Experimental: Ca-Flux Functional Assay: Determination of Agonist/Positive Allosteric Modulator (PAM) Activity
GPR43 agonist/PAM activity was determined by measuring changes in intracellular calcium levels using a Ca^2+ sensitive fluorescent dye. The changes in fluorescent signal were monitored by FLIPR (manufactured by Molecular Devices). GPR43 mediated increases in intracellular Ca^2+ concentration were readily detected upon activation with sodium acetate. Prior to the assay (24 hours), CHO-K1 Gα16 cells stably expressing human GPR43 were-seeded in cell culture medium in black, clear-bottom 384-well plates (Corning Inc) and grown overnight at 37° C., 5% CO2. On the day of the assay, cell culture media was removed and cells were loaded with Calcium 5 Dye (Molecular Devices) diluted in HBSS containing 25 mM HEPES, 2.5 mM Probenecid, 0.1% BSA for 1 hour at 37° C., 5% CO2. 10 point half log concentration response curves of sodium acetate from 10 mM were conducted prior to the testing of compounds to calculate the sodium acetate concentration that produces 20% of the maximal response (EC20). Test compounds (at to point half log concentration response curves from 10 μM) were added in the presence of sodium acetate to achieve a final concentration that produces approximately 20% maximal response as calculated from the previous experiment. The changes in fluorescent signal were monitored by FLIPR upon addition of the compound/EC20 sodium acetate mix. The EC50 values were determined from ten point concentration response curves. Curves were generated using the average of two wells for each data point.
The above assay detects both GPR43 receptor agonists and positive allosteric modulators of the GPR43 receptor, without distinguishing between the two. Activity in either regard is useful in the treatment of conditions associated with GPR43 receptor activity.

| Structure (SMILES) | pEC50 |
| --- | --- |
| Nc1c(S(=O)(=O)N2CCC(c3ccccc3)CC2)c2nccnc2n1C1CCCCC1 [Example 83, 5-cyclohexyl-7-(4-phenylpiperidine-1-sulfonyl)-5H-pyrrolo[2,3-b]pyrazin-6-amine] | 6.03 |
| Nc1c(S(=O)(=O)c2ccccc2)c2ccncc2n1C1CCCCC1 [Example 20, 3-(benzenesulfonyl)-1-cyclohexyl-1H-pyrrolo[2,3-]pyridin-2-amine] | 5.63 |
| COc1ncnc2c(S(=O)(=O)c3ccccc3)c(N)n(C3CCOCC3)c12 [Example 40, 7-(benzenesulfonyl)-4-methoxy-5-(oxan-4-yl)-5H-pyrrolo[3,2-d]pyrimidin-6-amine] | 5.13 |
| Nc1c(S(=O)(=O)c2ccccc2)c2ncnc(O)c2n1C1CCC(F)(F)CC1 [Example 31, 6-amino-5-(4,4-difluorocyclohexyl)-7-(phenylsulfonyl)-5H-pyrrolo[3,2-d]pyrimidin-4-ol] | 5.16 |
| Cc1ccc2c(S(=O)(=O)c3ccccc3)c(N)n(C3CCC(F)(F)CC3)c2n1 [Example 25, 3-(benzenesulfonyl)-1-(4,4-difluorocyclohexyl)-6-methyl-1H-pyrrolo[2,3-b]pyridin-2-amine] | 5.96 |
| Nc1c(S(=O)(=O)N2CCCC2)c2nccnc2n1C1CCCCC1 [Example 58, 5-cyclohexyl-7-(pyrrolidin-1-ylsulfonyl)-5H-pyrrolo[2,3-b]pyrazin-6-amine] | 5.65 |
| Nc1c(S(=O)(=O)N2CCC(C(F)(F)F)CC2)c2nccnc2n1C1CCCCC1 [Example 87, 5-cyclohexyl-7-[4-(trifluoromethyl)piperidine-1-sulfonyl]-5H-pyrrolo[2,3-b]pyrazin-6-amine] | 5.81 |
| COC1CCN(S(=O)(=O)c2c(N)n(C3CCCCC3)c3nccnc23)C1 (centres unmarked) [Example 91, 5-cyclohexyl-7-(3-methoxypyrrolidine-1-sulfonyl)-5H-pyrrolo[2,3-b]pyrazin-6-amine] | 5.08 |
| Nc1c(S(=O)(=O)c2ccccc2)c2nccnc2n1C1CCCOC1 (centres unmarked) [Example 51, 7-(phenylsulfonyl)-5-(tetrahydro-2H-pyran-3-yl)-5H-pyrrolo[2,3-b]pyrazin-6-amine] | 5.22 |
| COC1CN(S(=O)(=O)c2c(N)n(C3CCCCC3)c3nccnc23)C1 [Example 64, 5-cyclohexyl-7-((3-methoxyazetidin-1-yl)sulfonyl)-5H-pyrrolo[2,3-b]pyrazin-6-amine] | 5.15 |
| COc1ncnc2c(S(=O)(=O)c3ccccc3)c(N)n(C3CCCC3)c12 [Example 35, 7-(benzenesulfonyl)-5-cyclopentyl-4-methoxy-5H-pyrrolo[3,2-d]pyrimidin-6-amine] | 5.73 |
| CC1(C)CCN(S(=O)(=O)c2c(N)n(C3CCCCC3)c3nccnc23)C1 [Example 75, 5-cyclohexyl-7-(3,3-dimethylpyrrrolidine-1-sulfonyl)-5H-pyrrolo[2,3-b]pyrazin-6-amine] | 5.93 |
| Nc1c(S(=O)(=O)N2C3CCC2CC(O)C3)c2nccnc2n1C1CCCCC1 (centres unmarked) [Example 104, 8-{6-amino-5-cyclohexyl-5H-pyrrolo[2,3-b]pyrazine-7-sulfonyl}-8-azabicyclo[3.2.1]octan-3-ol] | 5.51 |
| Nc1c(S(=O)(=O)C2CC2)c2nccnc2n1C1CCCCC1 [Example 109, 5-cyclohexyl-7-(cyclopropanesulfonyl)-5H-pyrrolo[2,3-b]pyrazin-6-amine] | 5.54 |
| Nc1c(S(=O)(=O)N2CC(Oc3ccccc3)C2)c2nccnc2n1C1CCCCC1 [Example 99, 5-cyclohexyl-7-(3-phenoxyazetidine-1-sulfonyl)-5H-pyrrolo[2,3-b]pyrazin-6-amine] | 5.81 |
| Nc1c(S(=O)(=O)NCC2COC2)c2nccnc2n1C1CCCCC1 [Example 80, 6-amino-5-cyclohexyl-N-(oxetan-3-ylmethyl)-5H-pyrrolo[2,3-b]pyrazine-7-sulfonamide] | 5.22 |

The next compounds have a higher pEC50 than those just listed; values first:

| pEC50 | Structure (SMILES) |
| --- | --- |
| 6.10 | CCCNS(=O)(=O)c1c(N)n(C2CCCCC2)c2nccnc12 [Example 59, 6-amino-5-cyclohexyl-N-propyl-5H-pyrrolo[2,3-b]pyrazine-7-sulfonamide] |
| 6.15 | Nc1c(S(=O)(=O)c2ccccc2)c2ccnnc2n1C1CCCCC1 [Example 28, 5-(benzenesulfonyl)-7-cyclohexyl-7H-pyrrolo[2,3-c]pyridazin-6-amine] |
| 6.49 | Nc1c(S(=O)(=O)NCC2CCC2)c2nccnc2n1C1CCCCC1 [Example 74, 6-amino-N-(cyclobutylmethyl)-5-cyclohexyl-5H-pyrrolo[2,3-b]pyrazine-7-sulfonamide] |
| 6.18 | COc1nc(C)nc2c(S(=O)(=O)c3cccc(F)c3)c(N)n(C3CCCCC3)c12 [Example 39, 5-cyclohexyl-7-(3-fluorobenzenesulfonyl)-4-methoxy-2-methyl-5H-pyrrolo[3,2-d]pyrimidin-6-amine] |
| 6.48 | CCC(C)NS(=O)(=O)c1c(N)n(C2CCCCC2)c2nccnc12 (centres unmarked) [Example 95, 6-amino-N-(butan-2-yl)-5-cyclohexyl-5H-pyrrrolo[2,3-b]pyrazine-7-sulfonamide] |
| 6.19 | Nc1c(S(=O)(=O)N2CCN(CC(F)(F)F)CC2)c2nccnc2n1C1CCCCC1 [Example 105, 5-cyclohexyl-7-[4-(2,2,2-trifluoroethyl)-piperazine-1-sulfonyl]-5H-pyrrolo[2,3-b]pyrazin-6-amine] |
| 6.71 | Nc1c(S(=O)(=O)c2ccc(Cl)cc2)c2nccnc2n1C1CCCCC1 [Example 5, 7-[(4-chlorobenzene)sulfonyl]-5-cyclohexyl-5H-pyrrolo[2,3-b]pyrazin-6-amine] |
| 6.31 | N#Cc1ccc(S(=O)(=O)c2c(N)n(C3CCCCC3)c3nccnc23)cc1 [Example 113, 4-{6-amino-5-cyclohexyl-5H-pyrrolo[2,3-b]pyrazine-7-sulfonyl}benzonitrile] |
| 6.18 | Nc1c(S(=O)(=O)NCC2CC2)c2nccnc2n1C1CCCCC1 [Example 89, 6-amino-5-cyclohexyl-N-(cyclopropylmethyl)-5H-pyrrolo[2,3-b]pyrazine-7-sulfonamide] |
| 6.49 | CC1(C)CCN(S(=O)(=O)c2c(N)n(C3CCCCC3)c3nccnc23)CC1 [Example 66, 5-cyclohexyl-7-((4,4-dimethylpiperidin-1-yl)sulfonyl)-5H-pyrrolo[2,3-b]pyrazin-6-amine] |
| 6.31 | COC1CCN(S(=O)(=O)c2c(N)n(C3CCCCC3)c3nccnc23)CC1 [Example 73, 5-cyclohexyl-7-(4-methoxypiperidine-1-sulfonyl)-5H-pyrrolo[2,3-b]pyrazin-6-amine] |
| 6.91 | Nc1c(S(=O)(=O)c2ccc3c(c2)OCCO3)c2nccnc2n1C1CCCCC1 [Example 117, 5-cyclohexyl-7-(2,3-dihydro-1,4-benzodioxine-6-sulfonyl)-5H-pyrrolo[2,3-b]pyrazin-6-amine] |
| 6.53 | COc1cccc(S(=O)(=O)c2c(N)n(C3CCCCC3)c3nccnc23)c1 [Example 112, 5-cyclohexyl-7-[(3-methoxybenzene)-sulfonyl]-5H-pyrrolo[2,3-b]pyrazin-6-amine] |
| 6.68 | CCOC1CCN(S(=O)(=O)c2c(N)n(C3CCCCC3)c3nccnc23)CC1 [Example 65, 5-cyclohexyl-7-((4-ethoxypiperidin-1-yl)sulfonyl)-5H-pyrrolo[2,3-b]pyrazin-6-amine] |
| 6.61 | COc1nccc2c(S(=O)(=O)c3ccccc3)c(N)n(C3CCCCC3)c12 [Example 36, 3-(benzenesulfonyl)-1-cyclohexyl-7-methoxy-1-pyrrolo[2,3-c]pyridin-2-amine] |
| 6.23 | Nc1c(S(=O)(=O)Nc2ccccc2)c2nccnc2n1C1CCCCC1 [Example 41, 6-amino-5-cyclohexyl-N-phenyl-5H-pyrrolo[2,3-b]pyrazine-7-sulfonamide] |
| 6.75 | Nc1c(S(=O)(=O)c2ccc(OC(F)F)cc2)c2nccnc2n1C1CCCCC1 [Example 118, 5-cyclohexyl-7-{[4-(difluoromethoxy)-benzene]sulfonyl}-5H-pyrrolo[2,3-b]pyrazin-6-amine] |
| 6.49 | Nc1c(S(=O)(=O)N2CCC(OCC3CC3)CC2)c2nccnc2n1C1CCCCC1 [Example 107, 5-cyclohexyl-7-[4-(cyclopropylmethoxy)piperidine-1-sulfonyl]-5H-pyrrolo[2,3-b]pyrazin-6-amine] |
| 6.86 | COc1ccc(S(=O)(=O)c2c(N)n(C3CCC(F)(F)CC3)c3ncccc23)cc1 [Example 14, 1-(4,4-difluorocyclohexyl)-3-[(4-methoxybenzene)sulfonyl]-1H-pyrrolo[2,3-b]pyridin-2-amine] |
